Source: patent US7407667B2, “Pesticidal preparations comprising copolymers” (Clariant Produkte (Deutschland) GmbH, priority 2001, dated 2008)

Tests used:
Type in all cases: in vivo
[1] = tested on: Echinochloa crus-galli (ECHCG); assay: Greenhouse herbicidal action of glyphosate test formulations, plant growth assessed on a % scale; details: copolymer 600 g/ha where named, 300 l/ha, after 21 days at 20° C.
Description: (§1) Test formulations were prepared with in each case 200 g, 300 g and 500 g of glyphosate and in each case 600 g of the copolymers I to V in 300 l of water. The data by weight refer to 100% active ingredient and 100% adjuvant. An amount of the formulation corresponding to the ratio 300 l/ha was applied in a greenhouse to the plant species Abutilon theophrasti (ABUTH), Sesbania exaltata (SEBEX), Pharbitis purpurea (PHBPU), Galium aparine (GALAP), Amaranthus retroflexus (AMARE) and Echinochloa crus-galli (ECHCG), and, after 21 days at 20° C., the plant growth was assessed according to a % scale.
(§2) 0% means no effect and 100% means complete destruction of the types of plant.

[2] = tested on: Sesbania exaltata (SEBEX); assay: as above; details: copolymer 600 g/ha where named, 300 l/ha, after 21 days at 20° C.
Description: as §1, §2

[3] = tested on: Amaranthus retroflexus (AMARE); assay: as above; details: copolymer 600 g/ha where named, 300 l/ha, after 21 days at 20° C.
Description: as §1, §2

[4] = tested on: Abutilon theophrasti (ABUTH); assay: as above; details: copolymer 600 g/ha where named, 300 l/ha, after 21 days at 20° C.
Description: as §1, §2

[5] = tested on: Pharbitis purpurea (PHBPU); assay: as above; details: copolymer 600 g/ha where named, 300 l/ha, after 21 days at 20° C.
Description: as §1, §2

Galium aparine (GALAP) = assay: as above; details: copolymer 600 g/ha where named, 300 l/ha, after 21 days at 20° C.
Description: as §1, §2

[6] = tested on: SEBEX, AMARE, GALAP, ABUTH, ECHCG, PHBPU (Total); assay: Greenhouse herbicidal action of glyphosate test formulations, total over the six plant species; details: copolymer 600 g/ha where named
Description: as §1, §2

O=C(O)CNCP(=O)(O)O [Glyphosate, N-phosphonomethylglycine]
herbicidal action ECHCG ([1]; glyphosate 200 g/ha): 15%
herbicidal action ECHCG ([1]; glyphosate 300 g/ha): 20%
herbicidal action ECHCG ([1]; glyphosate 500 g/ha): 40%
herbicidal action SEBEX ([2]; glyphosate 200 g/ha, 0% no effect, 100% complete destruction): 10%
herbicidal action SEBEX ([2]; glyphosate 300 g/ha): 15%
herbicidal action SEBEX ([2]; glyphosate 500 g/ha): 30%
herbicidal action AMARE ([3]; glyphosate 200 g/ha): 20%
herbicidal action AMARE ([3]; glyphosate 300 g/ha): 45%
herbicidal action AMARE ([3]; glyphosate 500 g/ha): 65%
herbicidal action ABUTH ([4]; glyphosate 200 g/ha): 0%
herbicidal action ABUTH ([4]; glyphosate 300 g/ha): 10%
herbicidal action ABUTH ([4]; glyphosate 500 g/ha): 15%
herbicidal action PHBPU ([5]; glyphosate 200 g/ha): 10%
herbicidal action PHBPU ([5]; glyphosate 300 g/ha): 20%
herbicidal action PHBPU ([5]; glyphosate 500 g/ha): 40%
herbicidal action GALAP (Galium aparine (GALAP); glyphosate 200 g/ha): 5%
herbicidal action GALAP (Galium aparine (GALAP); glyphosate 300 g/ha): 20%
herbicidal action GALAP (Galium aparine (GALAP); glyphosate 500 g/ha): 40%
herbicidal action Total ([6]; glyphosate 200 g/ha): 10%
herbicidal action Total ([6]; glyphosate 300 g/ha): 22%
herbicidal action Total ([6]; glyphosate 500 g/ha): 38%
